Our source for the fold induction values is patent US20230331673A1, “COMPOSITION OF COMPOUNDS THAT MODULATE CELL METABOLISM AND METHODS OF USE” (CRESCENTA BIOSCIENCES, priority 2020, published 2023).

The assay relates to differentiated 3T3-L1 mouse adipocyte cells. As to the kind of experiment: Adipocyte glucose consumption in differentiated 3T3-L1 mouse adipocyte cells (loss of glucose from medium, colorimetric). To be noted: compound 10 μM, 22 to 24 hours, differentiated 3T3-L1 adipocytes, compound/DMSO, read-out: Glucose consumption (fold change) Mean. It is filed as cell-based. The method, boiled down: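 3T3-L1 cells were differentiated with rosiglitazone, dexamethasone, IBMX and insulin, then used on day 11 or 12. Medium glucose was measured colorimetrically, and consumption was given as mean fold change versus DMSO ± SD.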
For `CCCC1CCCc2c1c1cccc(C(=O)O)c1n2Cc1cccc(C(N)=O)c1` (stereo not shown) [9-[(3-carbamoylphenyl)methyl]-4-propyl-2,3,4,9-tetrahydro-1H-carbazole-8-carboxylic acid], the fold induction at 10 µM was 1.04.

`CCC1CCCc2c1n(Cc1cccc(C(=O)O)c1)c1c(C(=O)O)cccc21` (stereo not shown) [9-[(3-carboxyphenyl)methyl]-1-ethyl-2,3,4,9-tetrahydro-1H-carbazole-8-carboxylic acid]: the fold induction at 10 µM amounted to 1.09.

Regarding `CCC1CCc2c(n(Cc3cccc(C(=O)O)c3)c3c(C(=O)O)cccc23)C1` (stereo not shown) [9-[(3-carboxyphenyl)methyl]-2-ethyl-2,3,4,9-tetrahydro-1H-carbazole-8-carboxylic acid], the fold induction at 10 µM amounted to 1.11.

`CCC1CCCc2c1c1cccc(C(=O)O)c1n2Cc1cccc(C(=O)O)c1` (stereo not shown) [9-[(3-carboxyphenyl)methyl]-4-ethyl-2,3,4,9-tetrahydro-1H-carbazole-8-carboxylic acid]: the fold induction at 10 µM is 1.06.

Take `CCCCCOC1CCCc2c1n(Cc1cccc(C#N)c1)c1c(C(=O)O)cccc21` (stereo not shown) [9-[(3-cyanophenyl)methyl]-1-(pentyloxy)-2,3,4,9-tetrahydro-1H-carbazole-8-carboxylic acid]: the fold induction at 10 µM is 1.19.

Turning to `CCC1CCCc2c1n(Cc1cccc(C#N)c1)c1c(C(=O)O)cccc21` (stereo not shown) [9-[(3-cyanophenyl)methyl]-1-ethyl-2,3,4,9-tetrahydro-1H-carbazole-8-carboxylic acid], the fold induction at 10 µM turned out to be 1.11.

Regarding `CCCCCCC1CCc2c(n(Cc3cccc(C#N)c3)c3c(C(=O)O)cccc23)C1` (stereo not shown) [9-[(3-cyanophenyl)methyl]-2-hexyl-2,3,4,9-tetrahydro-1H-carbazole-8-carboxylic acid], the fold induction at 10 µM was 1.16.

As for `CCCCCC1CCc2c(n(Cc3cccc(C#N)c3)c3c(C(=O)O)cccc23)C1` (stereo not shown) [9-[(3-cyanophenyl)methyl]-2-pentyl-2,3,4,9-tetrahydro-1H-carbazole-8-carboxylic acid], the fold induction at 10 µM is 1.34.

Take `CCCC1CCc2c(n(Cc3cccc(C#N)c3)c3c(C(=O)O)cccc23)C1` (stereo not shown) [9-[(3-cyanophenyl)methyl]-2-propyl-2,3,4,9-tetrahydro-1H-carbazole-8-carboxylic acid]: the fold induction at 10 µM turned out to be 1.21.

On to `CCC1CCc2c(c3cccc(C(=O)O)c3n2Cc2cccc(C#N)c2)C1` (stereo not shown) [9-[(3-cyanophenyl)methyl]-3-ethyl-2,3,4,9-tetrahydro-1H-carbazole-8-carboxylic acid], for which the fold induction at 10 µM was determined as 1.08.

Regarding `CCCCCC1CCc2c(c3cccc(C(=O)O)c3n2Cc2cccc(C#N)c2)C1` (stereo not shown) [9-[(3-cyanophenyl)methyl]-3-pentyl-2,3,4,9-tetrahydro-1H-carbazole-8-carboxylic acid], the fold induction at 10 µM was 1.17.

As to `CCCC1CCc2c(c3cccc(C(=O)O)c3n2Cc2cccc(C#N)c2)C1` (stereo not shown) [9-[(3-cyanophenyl)methyl]-3-propyl-2,3,4,9-tetrahydro-1H-carbazole-8-carboxylic acid], the fold induction at 10 µM came out at 1.2.

On to `N#Cc1cccc(Cn2c3c(c4cccc(C(=O)O)c42)C(CCc2ccccc2)CCC3)c1` (stereo not shown) [9-[(3-cyanophenyl)methyl]-4-(2-phenylethyl)-2,3,4,9-tetrahydro-1H-carbazole-8-carboxylic acid], for which the fold induction at 10 µM is 1.1.

Take `CCCCCC1CCCc2c1c1cccc(C(=O)O)c1n2Cc1cccc(C#N)c1` (stereo not shown) [9-[(3-cyanophenyl)methyl]-4-pentyl-2,3,4,9-tetrahydro-1H-carbazole-8-carboxylic acid]: the fold induction at 10 µM came out at 1.13.

Take `CCCCC1CCCCc2c1c1cccc(C(=O)O)c1n2Cc1cccc(C(N)=O)c1` (stereo not shown) [10-butyl-5-[(3-carbamoylphenyl)methyl]-5H,6H,7H,8H,9H,10H-cyclohepta[b]indole-4-carboxylic acid]: the fold induction at 10 µM turned out to be 1.14.

As for `CCCCC1CCCCc2c1c1cccc(C(=O)O)c1n2Cc1cccc(C#N)c1` (stereo not shown) [10-butyl-5-[(3-cyanophenyl)methyl]-5H,6H,7H,8H,9H,10H-cyclohepta[b]indole-4-carboxylic acid], the fold induction at 10 µM came to 1.24.
